Calls of active or inactive are those of the source.
Columns and labels:
Beta-galactosidase = Beta-galactosidase (Escherichia coli, UniProt Q8VNN2); assay: Dose response counterscreen for EBI2 assay utilizing the enzyme, b-galactosidase.; type: functional
[1] = biological target: T1, Probable nicotinate-nucleotide adenylyltransferase (Staphylococcus aureus (strain N315), UniProt P65502); type: functional, Staphylococcus aureus subsp. aureus N315; conditions: read-out: IC50_Mean;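 on IC50 Mean: confirmatory dose-response retesting of NadD inhibitor hits first found in an ultra-high-throughput screen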
[2] = biological target: Glucose-6-phosphate 1-dehydrogenase (Homo sapiens, UniProt P11413); assay: inhibition of Homo sapiens G6PD, dose series – biochemical, fluorescence, selectivity assay for P. falciparum G6PD inhibitor project, dose response (AID 504792); type: functional
[3] = biological target: T1, Probable nicotinate-nucleotide adenylyltransferase; type: functional, Staphylococcus aureus subsp. aureus N315
Genome polyprotein = Genome polyprotein (dengue virus type 2, UniProt P29990); assay: flavivirus cap methylation enzyme inhibition – biochemical, confirmation dose response, primary screen (AID 588689); type: functional
[4] = Luminescence Cell-Based Dose Response HTS to Identify Activators of Luciferase Translation or Activity in H4 […] Cells. [Related pubchem assays: 1829 (Project Summary), 1814 (Primary HTS)]; type: functional
Mu-type opioid receptor = Mu-type opioid receptor (Homo sapiens, UniProt P35372); type: functional, cell-based;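 further: U2OS cells with beta-arrestin recruitment to OPRM1 by beta-gal complementation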
[5] = Luminescence Cell-Based Dose Confirmation HTS to Identify Activators of 5'UTR Stem-Loop Driven Alpha-Synuclein mRNA Translation in H4 Neuroglioblastoma Cells. [Related pubchem assays: 1829 (Project Summary), 1814 (Primary HTS)]; type: functional
H4 = assay: Luminescence Cell-Based Dose Response HTS to Identify Activators of 5'UTR Stem-Loop Driven Prion Protein mRNA Translation in H4 Neuroglioblastoma Cells. [Related pubchem assays: 1829 (Project Summary), 1814 (Primary HTS)]; type: functional; conditions: Homo sapiens
[6] = biological target: 5-hydroxytryptamine receptor 2A (Mus musculus, UniProt P35363); type: functional, cell-based;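 further: CHO-K1 cells with tagged receptor and beta-arrestin; agonist potency measured as compound-induced activation of the receptor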
[7] = intracellular Trypanosoma cruzi inhibitors in host cells – cell-based, plate reader, cherry-pick samples, set 3, dose response (AID 651818); type: functional;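 further: compounds incubated with infected cells for about four days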
Albumin = Albumin (Bos taurus, UniProt P02769); assay: Counterscreen for inhibitors of T-cell receptor (TCR)-CD3 interaction: Fluorescence-based biochemical high throughput dose response assay to identify inhibitors of T-cell receptor (TCR)-CD3 interaction using a TAMRA-labeled BSA probe.; type: functional
[8] = cAMP pathway inhibition in counterscreen cell line – TR-FRET cAMP detection, counter-screen for MC4R biased antagonist project, dose response (AID 602305); type: functional, cell-based;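 further: U2OS cells stimulated with forskolin near its EC80 as the cAMP inducer; potency is for inhibition of forskolin-stimulated cAMP signaling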
[9] = biological target: T2, Rac GTPase-activating protein 1 (Homo sapiens, UniProt Q9H0H5); assay: blockers of MgcRacGAP-driven Rac1 GTP hydrolysis – biochemical, ADP Hunter fluorescence, primary and confirmatory, confirmation (AID 624330); type: functional
T2 sequence (Q9H0H5 whole entry): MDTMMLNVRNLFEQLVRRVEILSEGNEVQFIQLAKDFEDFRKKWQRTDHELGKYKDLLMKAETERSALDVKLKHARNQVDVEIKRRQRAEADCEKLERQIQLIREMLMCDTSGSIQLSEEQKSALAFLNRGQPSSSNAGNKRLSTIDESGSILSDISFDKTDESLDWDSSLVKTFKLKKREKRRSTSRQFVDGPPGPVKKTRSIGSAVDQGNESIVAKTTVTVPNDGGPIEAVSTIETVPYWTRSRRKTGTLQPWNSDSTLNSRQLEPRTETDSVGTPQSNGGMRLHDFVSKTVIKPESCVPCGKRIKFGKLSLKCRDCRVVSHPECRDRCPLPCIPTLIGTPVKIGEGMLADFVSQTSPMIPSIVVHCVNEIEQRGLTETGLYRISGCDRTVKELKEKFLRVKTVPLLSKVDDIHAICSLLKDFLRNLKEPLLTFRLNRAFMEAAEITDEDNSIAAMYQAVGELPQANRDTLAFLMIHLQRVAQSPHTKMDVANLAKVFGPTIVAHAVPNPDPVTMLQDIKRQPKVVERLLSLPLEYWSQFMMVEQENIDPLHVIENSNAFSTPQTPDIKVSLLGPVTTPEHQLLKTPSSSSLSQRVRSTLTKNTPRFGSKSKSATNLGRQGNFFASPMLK

Melanocortin receptor 4 = Melanocortin receptor 4 (Homo sapiens, UniProt P32245); assay: inhibitors of MC4R cAMP signaling – cell-based, TR-FRET, biased antagonists, dose response (AID 602298); type: functional;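 further: antagonist potency against agonist-stimulated cAMP production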
Fatty acid synthase [10] = biological target: T3, Fatty acid synthase (Homo sapiens, UniProt P49327); assay: inhibition of human FAS-TE enzyme activity – biochemical, endpoint fluorescence intensity, uHTS hits, dose response (AID 624327); type: functional;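 further: fluorescence from hydrolysis of an O-methyl fluorescein acyl ester substrate by the enzyme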
Fatty acid synthase [11] = biological target: T3, Fatty acid synthase; assay: inhibition of human FAS-TE enzyme activity – biochemical, kinetic fluorescence intensity, dose response (AID 624326); type: functional;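 further: rate of fluorescence rise from hydrolysis of a fluorogenic O-methyl fluorescein ester substrate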
Major prion protein = Major prion protein (Homo sapiens, UniProt P04156); type: functional, cell-based

In the case of `COc1ccc(N2CCN(C(=O)c3cc(=O)c4cc(C)ccc4o3)CC2)cc1`, the IC50 (Beta-galactosidase) is reported as > 80 µM (inactive).

For `[O-][S+](c1ccccc1O)[S+]([O-])c1ccccc1O` (stereo not drawn), the IC50 [1] was 9.15 µM (active), the IC50 [2] was 54.1 µM (inactive) and the IC50 [3] was 3.33 µM (active). The IC50 (Genome polyprotein) was 68 µM (active).

In the case of `CN1CCc2c(sc(/N=C/c3cc(Cl)ccc3O)c2C#N)C1`, the EC50 [4] is reported as 5.07 µM (active), the EC50 (Mu-type opioid receptor) is reported as 92.4 µM (inactive) and the EC50 [5] is reported as 7.13 µM (active). For the same compound, the EC50 (H4) was 34.8 µM (active) and the EC50 [6] was 76.1 µM (inactive).

With `C[C@H]1CN([C@@H](C)CO)C(=O)Cc2cc(NC(=O)Nc3cccc4ccccc34)ccc2O[C@@H]1CN(C)Cc1ccc(-c2ccccc2)cc1` the AC50 [7] was 7.08 µM (active).

In the case of `COC(=O)C1CCN(CCCOc2ccc(CN3CCN(c4ccc([N+](=O)[O-])cc4)CC3)cc2)CC1`, the EC50 (Mu-type opioid receptor) is reported as 92.6 µM (inactive) and the EC50 [6] is reported as 0.57 µM (active).

For `CC(=O)c1ccc(NC(=O)CN2C(=O)/C(=C/C(C)=C/c3ccccc3)SC2=S)cc1`, the IC50 (Albumin) was > 94.1 µM (inactive).

In the case of `CC1(C)CC(=O)C(C(C2=C(O)CC(C)(C)CC2=O)c2cccs2)C(=O)C1` (stereo not drawn), the IC50 [8] is reported as > 64.6 µM (inactive), the IC50 [9] is reported as 73 µM (active) and the IC50 (Melanocortin receptor 4) is reported as 29.9 µM (inactive). The IC50 (Genome polyprotein) was 46.3 µM (active).

With `N#CC(CCc1ccccc1[N+](=O)[O-])(CCc1ccccc1[N+](=O)[O-])C(N)=O` the IC50 (Fatty acid synthase [10]) was 11.4 µM (active) and the IC50 (Fatty acid synthase [11]) was 12 µM (active).

For `COc1ccc(N2CCN(C(=O)c3ccc4[nH]c(C)c(C)c4c3)CC2)cc1`, the IC50 (Beta-galactosidase) was > 80 µM (inactive).

For `COCCN1C(=O)c2cc(C(=O)Nc3ccc(C)c(F)c3)ccc2C1Nc1ccc(C)c(F)c1` (stereo not drawn), the IC50 (Beta-galactosidase) was > 80 µM (inactive).

In the case of `CN1C(=O)C(C)(C)c2cc(S(=O)(=O)N3CCCC(C(=O)Nc4ccc(Cl)cc4)C3)ccc21` (stereo not drawn), the IC50 (Major prion protein) is reported as 5.86 µM (active) and the IC50 (cells) is reported as > 138 µM (inactive).

With `CNCCc1c[nH]c2ccc(O)cc12` the EC50 (Mu-type opioid receptor) was 92.4 µM (inactive) and the EC50 [6] was 1.73 µM (active).

For `CCc1nc(SCC(=O)NNC(=O)c2ccc(OC)cc2)c2ccccc2n1`, the IC50 (Major prion protein) was 1.72 µM (active) and the IC50 (cells) was > 138 µM (inactive).

Reference: ChEMBL document CHEMBL1201862, “PubChem BioAssay data set” (2004)
